Measurements: ChEMBL document CHEMBL5096208, “Installation of Pargyline, a LSD1 Inhibitor, in the HDAC Inhibitory Template Culminated in the Identification of a Tractable Antiprostate Cancer Agent” (J Med Chem, 2021)
Calls of active or inactive are those of the source. No cut-off for these calls is given here.

Experiments:
[1] = tested on: PC-3; assay: Antiproliferative activity against human PC-3 cells assessed as cell growth inhibition incubated for 48 hrs by MTT assay; assay type: functional
[2] = tested on: DU-145; assay: Antiproliferative activity against human DU-145 cells assessed as cell growth inhibition incubated for 48 hrs by MTT assay; assay type: functional
[3] = tested on: PC-3; assay: Antiproliferative activity against human PC-3 cells assessed as cell growth inhibition at upto 10 uM; assay type: functional, cell-based; settings: time 48.0 hrs
[4] = tested on: PC-3; assay: Antitumor activity against human PC-3 cells xenografted in athymic nude mouse assessed as tumor growth inhibition at 20 mg/kg, ip administered every 4 days for 4 doses and measured upto 25 days by caliper method relative to control; assay type: functional; settings: PC-3, 600 h, time <= 25 day, read-out: TGI
[5] = tested on: DU-145; assay: Antitumor activity against human DU-145 cells xenografted in athymic nude mouse assessed as tumor growth inhibition at 20 mg/kg, ip administered every 4 days for 5 doses and measured upto 60 days by caliper method relative to control; assay type: functional; settings: DU-145, 1440 h, time <= 60 day, read-out: TGI
[6] = Toxicity in athymic nude mouse xenografted with human PC-3 cells assessed as change in body weight at 20 mg/kg, ip administered every 4 days for 4 doses and measured upto 25 days; assay type: organism-based; settings: in vivo, 600 h, time < 25 day
[7] = Toxicity in athymic nude mouse xenografted with human PC-3 cells assessed as change in body weight at 50 to 100 mg/kg, po qd measured upto 25 days; assay type: organism-based; settings: in vivo, 600 h, dose 50-100 mg/kg, time < 25 day
[8] = Toxicity in athymic nude mouse xenografted with human DU-145 cells assessed as change in body weight at 20 mg/kg, ip administered every 4 days for 5 doses and measured upto 60 days; assay type: organism-based; settings: in vivo, 1440 h, time < 60 day
[9] = Toxicity in athymic nude mouse xenografted with human DU-145 cells assessed as change in body weight at 50 mg/kg, po qd measured upto 60 days; assay type: organism-based; settings: in vivo, 1440 h, time < 60 day
[10] = Toxicity in athymic nude mouse xenografted with human DU-145 cells assessed as change in body weight at 100 to 200 mg/kg, po administered every 2 days and measured upto 60 days; assay type: organism-based; settings: in vivo, 1440 h, dose 100-200 mg/kg, time < 60 day

GI50 [1] [µM] | GI50 [2] [µM] | Structure (SMILES) | other results
> 10 | > 10 | C#CCN(C)Cc1ccc(NC(=O)CCCCC(=O)NO)cc1 | 
> 10 | > 10 | C#CCN(C)Cc1cccc(NCc2ccc(C(=O)NO)cc2)c1 | 
> 10 | > 10 | C#CCN(C)Cc1ccc(NC(=O)CCCCCC(=O)NO)cc1 | 
0.75 | 0.56 | C#CCN(C)Cc1ccc(NCc2ccc(/C=C/C(=O)NO)cc2)cc1 | 
 |  | Cn1cc(-c2ccc(S(=O)(=O)n3ccc(/C=C/C(=O)Nc4ccccc4N)c3)cc2)cn1 | Activity [3]: Active
 |  | CC(=O)O[C@H]1C(=O)[C@@]2(C)[C@H]([C@H](OC(=O)c3ccccc3)[C@]3(O)C[C@H](OC(=O)[C@H](O)[C@@H](NC(=O)c4ccccc4)c4ccccc4)C(C)=C1C3(C)C)[C@]1(OC(C)=O)CO[C@@H]1C[C@@H]2O [PACLITAXEL] | inhibition in vivo at 20 mg/kg [4]: 47.8%; inhibition in vivo at 20 mg/kg [5]: 47%; Activity [6]: Non-Toxic; Activity [7]: Non-Toxic; Activity [8]: Non-Toxic; Activity [9]: Non-Toxic; Activity [10]: Non-Toxic
0.85 | 0.54 | C#CCN(C)Cc1cccc(NCc2ccc(/C=C/C(=O)NO)cc2)c1 | 
> 10 | > 10 | CNC(=O)c1ccc(N2C(=S)N(c3ccc(C#N)c(C(F)(F)F)c3)C(=O)C2(C)C)cc1F [ENZALUTAMIDE] | 
> 10 | > 10 | C#CCN(C)Cc1cccc(NC(=O)CCC(=O)NO)c1 | 
0.367 | 0.21 | C#CCN(C)Cc1ccc(NS(=O)(=O)c2cccc(/C=C/C(=O)NO)c2)cc1 | 
1.79 | 2.94 | C#CCN(C)Cc1cccc(NC(=O)CCCCCCCCC(=O)NO)c1 | 
0.71 | 0.96 | C#CCN(C)Cc1ccc(NS(=O)(=O)c2ccc(/C=C/C(=O)NO)cc2)cc1 | 
1.23 | 0.21 | C#CCN(C)Cc1cccc(NS(=O)(=O)c2cccc(/C=C/C(=O)NO)c2)c1 | 
4.63 | 4.29 | C#CCN(C)Cc1cccc(NC(=O)CCCCCC(=O)NO)c1 | 
> 10 | > 10 | C#CCN(C)Cc1ccc(NC(=O)CCC(=O)NO)cc1 | 
> 10 | > 10 | C[C@]12CC[C@H](O)CC1=CC[C@@H]1[C@@H]2CC[C@]2(C)C(c3cccnc3)=CC[C@@H]12 [ABIRATERONE] | 
2.28 | 1.51 | C#CCN(C)Cc1ccc(NC(=O)CCCCCCC(=O)NO)cc1 | 
> 10 | > 10 | C#CCN(C)Cc1ccc(NC(=O)CCCC(=O)NO)cc1 | 
7.16 | 3.4 | C#CCN(C)Cc1ccc(NC(=O)CCCCCCCC(=O)NO)cc1 | 
2.23 | 2.35 | C#CCN(C)Cc1cccc(NS(=O)(=O)c2ccc(/C=C/C(=O)NO)cc2)c1 | 
 |  | Nc1ccccc1NC(=O)c1ccc(CCCC(=O)Nc2ccc([C@H]3C[C@@H]3N)cc2)cc1 | Activity [3]: Active
5.15 | 9.75 | C#CCN(C)Cc1cccc(NC(=O)CCCCC(=O)NO)c1 | 
4.07 | 3.78 | C#CCN(C)Cc1cccc(NC(=O)CCCCCCCC(=O)NO)c1 | 
> 10 | > 10 | C#CCN(C)Cc1ccc(NCc2ccc(C(=O)NO)cc2)cc1 | 
4.26 | 2.74 | C#CCN(C)Cc1ccc(NC(=O)CCCCCCCCC(=O)NO)cc1 | 
> 10 | > 10 | C#CCN(C)Cc1cccc(NC(=O)CCCC(=O)NO)c1 | 

Structure (SMILES) | GI50 [1] [µM] | GI50 [2] [µM] | other results
C#CCN(C)Cc1ccccc1 [PARGYLINE] | 197 | 219 | 
